Test results taken from PubChem BioAssay AID179 (DTP/NCI, 2004).
“And” between values parts separate entries of the source, which are not always exact repeats. Identical values can stand only once. The source made the active and inactive calls.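 How the source made its calls: active means compounds giving half or more protection of infected cells from virus-caused growth loss, again on retest; inactive means the rest.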

Test system: CEM cells HIV-1 protection, formazan growth assay
Experiment: NCI AIDS Antiviral Assay
Details: for IC50: measured here: growth of uninfected CEM cells
How it was run: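 CEM (human) cells, HIV-1 infected vs uninfected, 5-point dosing, formazan growth read-out. Retest threshold 50% protection.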

Compound | EC50 | IC50 | outcome
O=c1c(-c2c(O)cc(O)c3c2O[C@H](c2ccc(O)cc2)[C@@H](O)C3)c(-c2ccc(O)cc2)oc2cc(O)cc(O)c12 | > 200 µM and 31.6 µM | 75.9 µM and > 100 µM | 
Cc1cc(-c2cc(C)c(N)c(S(=O)(=O)O)c2)cc(S(=O)(=O)O)c1N |  |  | inactive
Cc1ccc(NC(=O)CC2C(=O)Nc3ccccc3S2=O)c(C)c1 (stereo not drawn) | > 15.1 µM | > 15.1 µM | 
COc1cc(-c2cc(=O)c3c(O)cc(O)cc3o2)cc(OC)c1OC | > 64.6 µM | > 64.6 µM | 
COC(=O)CCNC(=O)OCc1ccccc1 | > 200 µM | > 200 µM | 
CC(=O)C(C(=O)CCSCCO)C(SCCO)c1ccc(Cl)c(Cl)c1 (stereo not drawn) | > 200 µM | 10.5 µM | 
COc1cccc2c1C(=O)C1=C(C2=O)C(O)CC(C)(C)O1 (stereo not drawn) | > 200 µM | 33.9 µM | 
CC(C)(C)c1cc2c(c(C(C)(C)C)c1)OC(C1Nc3cc(C(C)(C)C)cc(C(C)(C)C)c3O1)N2 (stereo not drawn) | > 100 µM | 21.4 µM | 
COc1ccc2cc1Oc1ccc(cc1)CC1c3c(cc(OC)c4c3Oc3cc5c(cc3O4)CCN[C@@H]5C2)CCN1C (stereo partly drawn) |  |  | inactive
Nc1ncnc2c1ncn2C1OC(CSC(F)F)C(O)C1O (stereo not drawn) | > 759 µM | 219 µM | 
CCOC(=O)/C(C#N)=C1/c2ccccc2C(=O)C1(Cl)C(N)=O (stereo not drawn) | > 200 µM | 28.8 µM | 
COC(=O)c1sc2nc(Nc3ccccc3)c(=Nc3ccccc3)sc2c1C | > 200 µM | > 200 µM | 
O=C(O)c1cc(S(=O)(=O)N=NC=C2c3ccccc3N(O)c3ccccc32)ccc1O |  |  | inactive
COc1ccc(/C=C2\N=C(N3CCCC(CO)C3)NC2=O)cc1 (stereo not drawn) | > 200 µM | > 200 µM | 
CSC1=C(SC)C(=O)c2cn(C)c(=O)cc2C1=O | > 200 µM | 0.977 µM | 
CCCC12C(C(=O)OC)C(=O)C(C(=O)OC)C1(C)C(C(=O)OC)C(=O)C2C(=O)OC (stereo not drawn) | > 138 µM | 97.7 µM | 
C[n+]1c2ccccc2n2c3ccccc3c(NCCc3ccccn3)c(C#N)c21 | > 20 µM | 1.29 µM | 
CCOCC(Br)C(OCC)OCC (stereo not drawn) |  |  | inactive
c1ccc(P(=C2c3ccccc3-c3ccccc32)(c2ccccc2)c2ccccc2)cc1 |  |  | inactive
O=C1CNc2cc(N3CCN(c4ccccc4)CC3)ccc2N1 | > 200 µM | 25.1 µM | 
O=C1/C(=C/c2ccc([N+](=O)[O-])cc2)Cc2ccccc21 | > 2.04 µM | > 2.04 µM | 
CCNCC(O)c1ccc(N)c([N+](=O)[O-])c1 (stereo not drawn) | > 200 µM | > 200 µM | 

Compound | EC50 | IC50 | outcome
Cc1ccc(S(=O)(=O)n2c3c(c4ccccc42)CCN2C(=O)C(S(=O)(=O)c4ccccc4)=CCC32)cc1 (stereo not drawn) | > 200 µM | 0.589 µM | 
COc1ccccc1C1SCC(=O)N1c1ccc(-c2ccc(-n3c(-c4ccccc4)nc4ccccc4c3=O)cc2)cc1 (stereo not drawn) | > 200 µM | > 200 µM | 
O=c1cc([O-])[n+](C2OC(CO)C(O)C2O)c2sccn12 (stereo not drawn) | > 63.1 µM | > 63.1 µM | 
C[N+](C)(C)C=NCCCCCCN=C[N+](C)(C)C | > 200 µM | > 200 µM | 
COC(=O)C(C(=O)C(=O)Nc1c(Cl)cc([N+](=O)[O-])cc1Cl)c1nc2cc(C)c(C)cc2[nH]c1=O (stereo not drawn) | > 97.7 µM | > 97.7 µM | 
C=CCN(c1cc(OC)c2[nH]cc(C)c2c1[N+](=O)[O-])S(C)(=O)=O | 97.7 µM | > 100 µM | 
COC(=O)c1ccccc1/C=C1\Cc2ccc(C)c(C)c2C1=O | > 200 µM | > 200 µM | 
CCNc1cnc2c(n1)c(=O)n(C)c(=O)n2C | > 200 µM | > 200 µM | 
O=C1/C(=C/c2cc3c(=O)c4ccccc4sc3s2)NC(=S)N1c1ccccc1 | > 200 µM | > 200 µM | 
Nc1nccc2c1ncn2C1OC(CO)C(O)C1O (stereo not drawn) | > 933 µM | 30.2 µM | 
Cc1cc[n+]2cc(-c3ccc(/C=N/N=C(N)N)cc3)n(C)c2c1 | 52.5 µM | 55 µM | 
CC1SC(C)SC(C(C)(C)O)S1 (stereo not drawn) | > 32.4 µM | > 32.4 µM | 
CCOC(=O)c1nc2c(Cl)c3ncccc3cc2[nH]c1=O | > 200 µM | 12 µM | 
c1ccc2c(c1)Nc1nsnc1N2 | > 27.5 µM | 7.08 µM | 
CC(=O)OCC1OC(n2c(C)c(C(C)=O)c(-c3ccco3)c(C#N)c2=S)C(OC(C)=O)C(OC(C)=O)C1OC(C)=O (stereo not drawn) | > 200 µM | 112 µM and 87.1 µM | 
[O-]c1on[n+]2c1CCCC2 |  |  | inactive
N=Nc1c2ccccc2c2nc3c(N)[nH]nc(N)c3nc12 | > 45.7 µM | 28.8 µM | 
O=C(Nc1ccc(Sc2ccc(N=Nc3c(O)c(S(=O)(=O)O)cc4cc(S(=O)(=O)O)ccc34)cc2)cc1)c1ccc(N=Nc2ccc3c(S(=O)(=O)O)cccc3c2O)cc1 |  |  | inactive
CCOC(=O)c1nc2ccc(C(F)(F)F)cc2[nH]c1=O | > 200 µM | > 200 µM | 
NC(=S)N/N=C(/C(=O)Nc1nc2ccc([N+](=O)[O-])cc2s1)C1C(=O)NC(=S)NC1=O | > 15.5 µM | > 15.5 µM | 
O=C1OCC(O)=C1C(c1ccc(Cl)cc1)c1cc2c(cc1O)OCO2 (stereo not drawn) | > 200 µM | > 200 µM | 
O=C1C(CN2CCCCC2)CCC1CN1CCCCC1 (stereo not drawn) | > 200 µM | 8.13 µM | 

Compound | EC50 | IC50 | outcome
CN(C)C(=S)/N=c1\ss/c(=N\S(=O)(=O)c2ccccc2)n1C |  |  | inactive
C[n+]1c2ccccc2c(CNCC(=O)O)c2ccccc21 |  |  | inactive
CC1(C)CC2=C(CC3C4C=C5CC(C)(C)OC(=O)C5(C4)C23)C(=O)O1 (stereo not drawn) | > 87.1 µM | > 87.1 µM | 
CC1(C)OC2OC3C4COC(SSC56OCC(O5)C5OC7OC(C)(C)OC7C5O6)(O4)OC3C2O1 (stereo not drawn) | > 200 µM | 26.3 µM | 
Cc1[nH]n(-c2nc3c(c(=O)[nH]2)CCCC3)c(=O)c1CCO | > 200 µM | 129 µM | 
COC(=O)C1=C(C)N2CCOC2CC1c1ccccc1 (stereo not drawn) | > 200 µM | 135 µM | 
O=C1c2ccccc2C(=O)c2sc(Nc3ccc([N+](=O)[O-])cc3)nc21 | > 10.7 µM | > 10.7 µM | 
N#CC1(Cc2ccc(N)cc2)c2ccccc2C=CN1C(=O)c1ccccc1 (stereo not drawn) |  |  | inactive
O=C(O)c1cc(Cc2cc(C(c3ccc(O)c(C(=O)O)c3)c3ccc(O)c(C(=O)O)c3)cc(C(=O)O)c2O)ccc1O | 95.5 µM | 195 µM | 
O=C(Cc1nc2ccc(C(=O)c3ccccc3)cc2[nH]c1=O)C(=O)Nc1nc2ccccc2[nH]1 |  |  | inactive
O=C(CC(C(=O)c1ccsc1)c1cccs1)c1ccsc1 (stereo not drawn) | > 200 µM | 15.5 µM | 
CN1C[C@H]2[C@@H](C1=O)[C@H](c1ccc([N+](=O)[O-])cc1)ON2C | > 200 µM | > 200 µM | 
Nc1[nH]c(=O)nc(Nc2ccc(Cl)c(Cl)c2)c1N=O | > 200 µM | 13.5 µM | 
O=c1ccn(C2CC(F)C(CO)S2)c(=O)[nH]1 (stereo not drawn) | > 25.1 µM | > 25.1 µM | 
O=c1oc2ccccc2c(O)c1C(c1ccc(/C=C/c2ccccc2)cc1)c1c(O)c2ccccc2oc1=O | > 200 µM | 15.1 µM | 
CCOC(=O)n1ccc2c(C(=O)OC)c(C(=O)OC)cc(/C(=C/C(=O)OC)C(=O)OC)c21 | > 151 µM | 102 µM | 
N#Cc1ccc(-n2cccc2)cc1 | > 200 µM | > 200 µM | 
CCCCCCCCCCCC(=O)c1c(O)cccc1O | > 17.8 µM | 15.5 µM | 
CN1CCN(CCCCN2c3ccccc3Sc3cc(N=[N+]=[N-])ccc32)CC1 | > 200 µM | 3.63 µM | 
FC(F)(F)c1cc(C2SCc3nc4ccccc4n32)cc(C(F)(F)F)c1 (stereo not drawn) | > 41.7 µM | 7.08 µM | 
COC1/C=C/OC2(C)Oc3c(C)c(O)c4c(O)c(cc(OCC(=O)N(C)CCCCC(=O)O)c4c3C2=O)NC(=O)/C(C)=C/C=C/C(C)C(O)C(C)C(O)C(C)C(OC(C)=O)C1C (stereo not drawn) | > 200 µM | 19.1 µM | 
CC(=O)[C@H]1CC[C@H]2[C@@H]3C=CC4=CC(=O)CC[C@@]4(C)[C@@H]3CC[C@]12C | > 126 µM | 79.4 µM | 

Compound | EC50 | IC50 | outcome
COc1cc2c(cc1OC)C(=O)C(C1=C(SC(=N)N)C(=O)c3cc(OC)c(OC)cc31)C2 (stereo not drawn) | > 28.2 µM | > 28.2 µM | 
CCC1C[N+]23CCc4c([nH]c5ccccc45)C2CC1CC3 (stereo not drawn) | > 57.5 µM | > 57.5 µM | 
Cc1cn(COCCCSc2ccccc2)c(=O)[nH]c1=O | 21.9 µM | 166 µM | 
O=[N+]([O-])/C=C/COCc1cc2c(cc1Br)OCO2 | > 200 µM | 9.33 µM | 
CO[C@@H]1O[C@H](C(=O)c2ccccc2)[C@H]2OC(C)(C)O[C@@H]12 | > 200 µM | 45.7 µM | 
Cc1cc(S(=O)(=O)Nc2n[nH]c(N)n2)c(S)cc1Cl | > 200 µM | > 200 µM | 
CN(C)C(=O)CC(C(=O)O)c1c[nH]c2ccccc12 (stereo not drawn) | > 309 µM | > 309 µM | 
Cc1ccc(C)n1-n1c(Cc2ccc(Cl)cc2)n[nH]c1=O | > 200 µM | 50.1 µM | 
CN(C)Cc1cc(/C=C/C(=O)c2ccc(Br)cc2)cc(CN(C)C)c1O | > 200 µM | 10.5 µM | 
CCCCCCCCC=CCCCCCCCC(=O)O[C@H](COC(=O)CCCCCCC/C=C\CCCCCCCC)COP(=O)(O)OCCNC(=O)CCC(=O)OCCC=C(c1cc(Cl)c(OC)c(C(=O)OC)c1)c1cc(Cl)c(OC)c(C(=O)OC)c1 | > 100 µM | 60.3 µM | 
CC(C)C1=CC23CCC4C(C)(C(=O)O)CCCC4(C)C2CC1C1C(=O)N(c2cccc(N4C(=O)C5C6CC7C8(C)CCCC(C)(C(=O)O)C8CCC7(C=C6C(C)C)C5C4=O)c2)C(=O)C13 (stereo not drawn) | > 269 µM | 13.2 µM | 
C=C(C)OCOCCOC | > 200 µM | > 200 µM | 
C/C(=N\NC(=S)NCCCNC(=S)N/N=C(\C)c1ccccn1)c1ccccn1 | > 200 µM | 3.16 µM | 
O=c1[nH]ccc2c1ccn2C1CC(O)C(CO)O1 (stereo not drawn) |  |  | inactive
CC(=O)ONC(C(=O)C(C)(C)C)C(=O)C(C)(C)C | > 200 µM | > 200 µM | 
O=C(Nc1noc(-c2ccccc2)n1)c1ccccc1CNc1noc(-c2ccccc2)n1 | > 200 µM | > 200 µM | 
O=S(=O)(N(c1ccc(Cl)cn1)S(=O)(=O)C(F)(F)F)C(F)(F)F | > 200 µM | > 200 µM | 
O=C(O)C(O)(c1ccccc1)c1ccsc1 (stereo not drawn) | > 200 µM | > 200 µM | 
c1cnc(NC(Nc2cnccn2)C2CCCCC2)cn1 | > 240 µM | > 240 µM | 
